The IC50 is the midpoint of a concentration-inhibition curve.

Converted amounts (≈) assume the structure as drawn. Like-named read-outs stand apart in the source and are kept apart here.

Series [1] is described as follows: OH● radical scavenging assay. The class given is biochemical. The note with it: for inhibition of OH● radicals: 100 µg/mL; for IC50 OH● Inhibition: mean ± SD, triplicate. Here is the method: (§1) To evaluate the antioxidant potential of the stress compound, a multifaceted antioxidant evaluation of a stress compound was performed via DPPH scavenging assay, OH● radical scavenging assay, NO scavenging assay, and Iron chelating assay by following pre-described protocols.

The nature of series [2]: Iron chelating assay. The class given is biochemical. The following applies: for IC50 Iron Chelation: mean ± SD, triplicate. As for the experimental part: as §1
Series [3] concerns prostate cancer cells (PC3). Briefly: MTT cytotoxicity assay. The class given is cell-based. The following applies: Homo sapiens. Here is the method: MTT assay was used to assess cytotoxicity against the human prostate PC3 cell line. […] PC3 cells were cultured in a humidified CO2 incubator at 37 °C in complete growth medium RPMI 1640 enriched with 2.2 g/L NaHCO3, 100 µg/mL streptomycin sulfate, 10% v/v heat-inactivated fetal bovine serum (HIFBS), […] amphotericin B, and 100 IU/mL penicillin G sodium. 20 µL of a compound in 1% DMSO in PBS and 180 µL of PC3 cancer cells were combined in a 96-well plate to reach a final concentration of 20 µg/mL for evaluating the cytotoxicity on PC3 cancer cells. The cells were loaded at an assay density of 1 × 10^4 cells/mL. The plate was incubated in humidified 5% CO2 at 37 °C for 24 h, 48 h, and 72 h. Cabazitaxel was utilized as a positive control, and 1 percent DMSO in PBS was employed as a negative control. Cabazitaxel was procured from Enzo life sciences, Fisher Scientific (Thermo Fisher Scientific, California, USA) CAS-183133-96-2 (ENZCHM2170010). A stock solution (4 mg/mL) of Cabazitaxel was prepared in DMSO and diluted in 1× PBS to make it 1% DMSO. Then serial dilutions of the standard compound were prepared in such a way that wells received 50, 25, 12.5, 6.25, and 3.12 µg/mL of Cabazitaxel with ≤1% DMSO. After that, 20 µL of pre-filter sterilized MTT solution was added to plates and incubated at 37 °C for 4 h in a CO2 incubator. Colored formazan crystals were detached by deliberately removing the supernatant and dissolved in 100 µL of DMSO with absorbance measured at 540 nm using Elx 800 microplate reader. Cytotoxicity was calculated using the following formula:% cytotoxicity = [100−(As/Ac × 100)] (1) where As and Ac show the absorbance of sample and negative control, respectively. Cytotoxicity was calculated with GraphPad Prism 5 software.
(In general: Tetrazolium assays rely on reduction of a dye to a coloured formazan, in cell work by metabolically active cells.)

Series [4] can be described thus: DPPH radical scavenging assay. The class given is biochemical. The note with it: for inhibition of free radical (DPPH): 100 µg/mL; for IC50 DPPH Scavenging: mean ± SD, triplicate. Here is the method: as §1
Series [5] can be described thus: NO scavenging assay. The class given is biochemical. The following applies: for IC50 NO Inhibition: mean ± SD, triplicate. As for the experimental part:
as §1

Series [6] deals with blood lymphocytes. Briefly: Comet assay (genotoxicity). The class given is cell-based. Here is the method: To evaluate toxicity, blood lymphocytes were treated with 10 and 20 µg/mL MVL samples, 20 µg/mL EMS (positive), 1% DMSO in PBS (negative control), and comet assay was performed. The slides were envisioned under a fluorescent microscope, and the extent of DNA damage was evaluated by analyzing the photomicrographs via CASP 1.2.3.b image analysis. Analysis of 50–100 cells from each sample was performed to assess comet length, head length, tail length, tail moment, DNA content in the head, and tail of lymphocytes. […] The tail length (18.5 ± 1.4 µm) of EMS-treated DNA clearly indicates the production of nicks in nuclear content, representing a greater extent of genotoxicity. […]

In series [7] the test system is P53. In words: Western blot expression analysis in PC3 cells. The class given is cell-based, human. The note with it: PC3, 0, 5 and 10 µg/mL, 48 h. As for the experimental part: (§2) To unveil the possible mechanistic reason behind the anti-proliferation of cancer cell colonies in MTT assays, expression analysis of apoptotic proteins P53, BCL-2 and BAX were assessed via western blot technique (Figure 6). GAPDH served as a loading control. Prostate cancer cells (PC3) were treated with compound MVL at three concentrations (0, 5, and 10 µg/mL) for 48 h. Protein (40–60 µg) from protein lysate was segregated and probed with specified monoclonal antibodies.
(§3) Figure 6 Western blot analysis of proteins associated with MVL induced apoptosis. Prostate cancer cells, PC3 were treated with MVL at a concentration of 0, 5, and 10 µg/mL for 48 h. […] GAPDH was used as a loading control. Fold change in P-53, BAX, and BCL-2 expression after treating for 48 h with different concentrations of MVL. Means with different superscripts (^a–c) indicate significant (p < 0.001) difference in fold change between groups.
(§4) PC3 cells were cultured in a T75 flask (1 × 10^6/flask). After 48 h, cells were treated with […]. Following treatment, media was aspirated and cells were washed with cold PBS whose pH was maintained at 7.4 trypsinized and pelleted in 15 mL falcon tubes, and cold lysis buffer was added to the pellet. Protein extraction and western blot analysis were done by following the protocol described previously.
On the technique in general: A western blot detects proteins with antibodies after separation by electrophoresis.

The test system of series [8] is BCL-2. In words: Western blot expression analysis in PC3 cells. The class given is cell-based, human. The note with it: PC3, 0, 5 and 10 µg/mL, 48 h. Here is the method:
as §2, §3, §4

The test system of series [9] is BAX. Briefly: Western blot expression analysis in PC3 cells. The class given is cell-based, human. The following applies: PC3, 0, 5 and 10 µg/mL, 48 h. As for the experimental part: as §2, §3, §4
Series [10] has as its system PC3 cells. Briefly: In vitro scratch (cell migration) assay. The class given is cell-based, human. The following applies: PC3, 10 µg/mL, 24 h treatment; control 16.62 ± 4.4%. As for the experimental part:
Stress compound MVL was tested for cell migration of PC3 using an established in vitro scratch test for 24 h. MVL (10 µg/mL) appeared to induce a significant reduction in cell migration at 12 and 24 h treatment of PC3. This was estimated by comparing the scratch area at every observation time as a percentage of control at 0 h. The area of scratch at 24 h treatment with MVL was recorded as 61.10 ± 5.2% compared to control (16.62 ± 4.4%) (Figure 5).
Figure 5 In vitro scratch assay on MVL treated prostate cancer cells. PC3 cells were plated in 6-well plates and scratched at the full confluence. […] Reduction in the area of the scratch was Photographed using Olympus CKX41 microscope and measured using ImageJ software. Data is mean ± SEM percent area of scratch in triplicate at ***: p < 0.001 and ****: p < 0.0001.
In vitro wounds were induced by a modified protocol described, and the scratch assay was performed on cells to study the effect of stress compound on cell migration. In the growth medium of 24-well plates, […] were injected at a density of 5 × 10^4 cells/well. After achieving about 100% proliferation, the cells were shifted to the basal media for 24 h. […] Images were recorded instantly after being wounded and then again portrayed at 0, 12, and 24 h time points. Using Image J software, cell migration rates were quantified by measuring the wound area change (pixels).

Turning to `O=C(O)c1cc(O)c(O)c(O)c1` [Gallic acid, reference compound], in [1], the “inhibition of OH● radicals” value is listed as 83.15 ± 3.67% and the “IC50 OH● Inhibition” value is listed as 6.26 ± 6.39 µg/mL (≈ 36.8 µM).
Turning to `O=C(O)CN(CCN(CC(=O)O)CC(=O)O)CC(=O)O` [EDTA, reference compound], in series [2], the iron chelation capacity was 81.52 ± 4.67% and the “IC50 Iron Chelation” value is 10.20 ± 6.54 µg/mL (≈ 34.9 µM).
In the case of `CO[C@H]1C(=O)[C@]2(C)[C@@H](OC)C[C@H]3OC[C@@]3(OC(C)=O)[C@H]2[C@H](OC(=O)c2ccccc2)[C@]2(O)C[C@H](OC(=O)[C@H](O)[C@@H](NC(=O)OC(C)(C)C)c3ccccc3)C(C)=C1C2(C)C` [Cabazitaxel, reference compound], the IC50 in series [3] (24 h, read-out: IC50 24 h) was 21.2 ± 5.1 µg/mL (≈ 25.3 µM); in series [3] (48 h, read-out: IC50 48 h), 15.1 ± 5.7 µg/mL (≈ 18.1 µM); in series [3] (72 h, read-out: IC50 72 h), 9.25 ± 3.4 µg/mL (≈ 11.1 µM).
For the compound `O=C1O[C@H]([C@@H](O)CO)C(O)=C1O` [Ascorbic acid, reference compound], in series [4], the “inhibition of free radical (DPPH)” value worked out at 84.23 ± 2.9% and the “IC50 DPPH Scavenging” value was 6.52 ± 4.92 µg/mL (≈ 37 µM). For the same compound, in [5], the “inhibition of NO free radicals” value is 81.69 ± 2.69% and the “IC50 NO Inhibition” value is reported as 8.44 ± 4.17 µg/mL (≈ 47.9 µM).
In the case of `CC1=CC(=O)OCC1` [MVL, anhydromevalonolactone], in series [4], the “inhibition of free radical (DPPH)” value amounted to 78.18 ± 4.2% and the “IC50 DPPH Scavenging” value is 19.65 ± 5.7 µg/mL (≈ 175 µM). Further, in [6] (10 µg/mL), the “% DNA in Head” value is 86.1 ± 2.8%, the “% DNA in Tail” value is reported as 13.9 ± 1.8 ^β %, the “Comet Length” value came to 42.6 ± 3.1 µm and the “Head Length” value came out at 36.7 ± 2.5 µm. Besides, in [6] (10 µg/mL), the “Tail Length” value was determined as 5.9 ± 0.3 µm and the “Tail Moment” value is reported as 0.11 ± 0.03 ^β µm. Moreover, in [6] (20 µg/mL), the “% DNA in Head” value was 80.6 ± 1.8%; the “% DNA in Tail” value is reported as 19.4 ± 2.6 ^β, ¥ %; the “Comet Length” value stood at 41.4 ± 2.4 µm; the “Head Length” value came out at 31.7 ± 1.8 µm. In series [6] (20 µg/mL), the “Tail Length” value worked out at 8.5 ± 1.3 µm and the “Tail Moment” value is on record as 0.24 ± 0.03 ^β, ¥ µm. Further, in [5], the “inhibition of NO free radicals” value is 80.05 ± 3.88% and the “IC50 NO Inhibition” value was 15.49 ± 4.8 µg/mL (≈ 138 µM). Further, in series [2], the iron chelation capacity is on record as 70.96 ± 5.79% and the “IC50 Iron Chelation” value came to 19.38 ± 7.11 µg/mL (≈ 173 µM). Also, in series [1], the “inhibition of OH● radicals” value came out at 72.69 ± 4.93% and the “IC50 OH● Inhibition” value was 19.65 ± 5.22 µg/mL (≈ 175 µM). In addition, the P53 protein expression result in series [7] is “upregulation”. Also, in [8], the BCL-2 protein expression entry is given as “downregulation”. For the same compound, in series [9], the BAX protein expression entry is “upregulation”. Also, in series [3] (24 h, read-out: IC50 24 h), the IC50 came out at 35.8 ± 4.2 µg/mL (≈ 319 µM). Further, in [3] (48 h, read-out: IC50 48 h), the half-maximal inhibitory concentration (IC50) was 23.3 ± 3.8 µg/mL (≈ 208 µM). Further, the IC50 in [3] (72 h, read-out: IC50 72 h) came out at 16.2 ± 6.5 µg/mL (≈ 145 µM). Also, the “area of scratch as percentage of control at 0 h” value in [10] came out at 61.10 ± 5.2%.
As to `CCOS(C)(=O)=O` [EMS, Ethyl methane sulfonate, reference compound], in [6] (20 µg/mL), the “% DNA in Head” value is reported as 56.6 ± 3.5%, the “% DNA in Tail” value is 43.4 ± 1.8 ^¥ %, the “Comet Length” value was 42.6 ± 3.6 µm and the “Head Length” value is 24.1 ± 2.7 µm. Further, in series [6] (20 µg/mL), the “Tail Length” value came to 18.5 ± 1.4 µm and the “Tail Moment” value is 1.37 ± 0.11 ^¥ µm.

Source of the values: PMC8584265, “Stress Driven Discovery of Natural Products From Actinobacteria with Anti-Oxidant and Cytotoxic Activities Including Docking and ADMET Properties” (International Journal of Molecular Sciences, 2021).
